System: LL/2 lung cancer tumor endothelial cells
Experiment: Lung LL2 ex vivo model of tumor angiogenesis
Type: cell-based, mouse
Conditions: for 48 hrs (morphology observations): LL/2 tumor endothelial cells; for Cell death: drug treatment for two days, ratio of red area to total endothelial cell area
Method: An ex vivo tumor angiogenesis model was developed to test the efficacy of anti-cancer candidate agents. The following protocol describes the Ex Vivo Tumor Angiogenesis Model.
• 1. The day before the experiment, all necessary tools were sprayed with 70% ethanol and sterilized under UV light overnight, including blade, dissecting and micro-dissecting scissors and […]. 24-well dishes were placed at 4° C. to pre-chill plates and Matrigel was thawed, 24 hours before tumor dissection. • 2. 70% ethanol was sprayed on working bench. Two sterile petri dishes were prepared with 10 ml sterile PBS. The following steps 3 and 4 are necessary for mouse tumor models. For fresh human tumor, steps 3 and 4 are skipped. • 3. The tumor-bearing mice were euthanized. 70% ethanol was sprayed on the mouse and the tumor was removed using sterilized dissecting tools (avoid the fur). The tumor was rinsed in petri dish with sterile PBS to remove ethanol and fur. The tumor was transferred to a new petri dish with PBS for dissection. The dish is placed on ice. • 4. Pre-chilled sterile pipet tips were used to seed regular Matrigel in 24 well plates on ice. Matrigel (30 μl) was dropped in the middle of each well without touching the edge of the well (avoid introducing bubbles if possible). • 5. The tumor was cut in halves using the sterile blade. Healthy tumor tissue that is not necrotic and is within the tumor capsule was identified and isolated. The healthy tumor tissue was cut into small pieces. For instance, a suitable size for the tumor tissue is 0.5 mm (H)×0.5 mm (L)×0.3 mm (D) with a total volume of 0.075 mm^3. • 6. Each tumor piece was gently transferred and embedded in the Matrigel drop in the 24-well plate. The embedded piece was placed in the bottom and middle of each Matrigel drop. The plate was kept on ice all the time. • 7. After seeding the tumor pieces, plates were incubated in a 37° C. cell culture incubator without medium for 10 minutes in order for the Matrigel to solidify. • 8. Endothelial Growth Medium (0.5 ml) was added to each well and incubated at 37° C. with 5% CO2. Treatment was not added until the new endothelial cells was grown out of the tumor or were larger than 3 mm in diameter. This usually takes 4 days for the LL2 Lewis lung cancer model and 7 days for the CT26 colon cancer model. For human tumor models, the growth time is typically 2-3 weeks, depending on the tumor type. Media was changed every 4 days during prolonged culture. Typically, when the tumor tissue grows to 2 mm in diameter, it was good for drug testing. A size of about 3 mm in diameter can make visualization easier. • 9. When the assay was ready to be analyzed for cell death (e.g., 48 hours after drug addition), the dye mixture was prepared by mixing 6 μl of green dye to stain live cells (5 mg/ml Fluorescein diacetate or FDA in DMSO) with 30 μl of red dye (2.5 mg/ml Propidium iodide or PI in PBS) to stain dead cells in an Eppendorf tube. The FDA dye needs to be stored frozen in a −20° C. freezer because it has a labile ester bond. • 10. 1 μl of the dye mixture was added to each well of the 24-well dish. It is usually preferred to do one 24-well dish at a time given the amount of time needed to take pictures (the green dye is not as stable in the cells in the long term). • 11. The dish was gently rocked a few times to mix the dye with the media in the wells and incubate the dish at 37° C. for 10 min (too long incubation can make the green signal too intense). • 12. Each well was washed with 0.5 ml of sterile PBS and then 0.5 ml of phenol red free SFM was added to each well. Alternatively 0.5 ml of regular Endothelial Cell Growth Media can be added to each well if this well needs to be continuously maintained after the experiment. • 13. An inverted microscope using the 2× objective lens was used to observe morphological changes in the experimental wells. • 14. […]

[1] = Mus musculus, Endothelial cell, 48 h, read-out: Cell death

Row | Compound | 48 hrs (morphology observations) (20 μm) | Cell death (20 μm) [%] | 48 hrs (morphology observations) (10 μm) | Cell death (10 μm) [%] | other results
1 | CCCCCCCOc1ccc(S(=O)(=O)c2cnc3ccc(SC)cc3c2N2CCC(N3CCN(C)CC3)CC2)cc1 [Compound 246] | *** (more than 50% but less than 100% of endothelial cells vesicularize in cell shape) | 95 | – | – | –
2 | CCCCCCCOc1ccc(S(=O)(=O)c2cnc3ccc(SC)cc3c2N2CCC(N3CCCC(O)C3)CC2)cc1 (stereo not shown) [Compound 247] | *** (more than 50% but less than 100% of endothelial cells vesicularize in cell shape) | 60 | – | – | –
3 | CCCCCCCOc1ccc(S(=O)(=O)c2cnc3ccc(SC)cc3c2N2CCCN(CCN3CCCCC3)CC2)cc1 [Compound 248] | * (50% or less of cells vesicularize in cell shape) | 60 | – | – | –
4 | CCCCCCCOc1ccc(S(=O)(=O)c2cnc3ccc(SC)cc3c2N2CCC(N3CCCN(C)CC3)CC2)cc1 [Compound 249] | *** (more than 50% but less than 100% of endothelial cells vesicularize in cell shape) | 60 | – | – | –
5 | CCCCCCCOc1ccc(S(=O)(=O)c2cnc3ccc(SC)cc3c2N2CCC(N3CCN(CCO)CC3)CC2)cc1 [Compound 250] | *** (more than 50% but less than 100% of endothelial cells vesicularize in cell shape) | 90 | – | – | –
6 | CCCCCCCOc1ccc(S(=O)(=O)c2cnc3ccc(SC)cc3c2N2CCC(N3CCC(N4CCCCC4)CC3)CC2)cc1 [Compound 251] | *** (more than 50% but less than 100% of endothelial cells vesicularize in cell shape) | 60 | – | – | –
7 | CCCCCCCOc1ccc(S(=O)(=O)c2cnc3ccc(SC)cc3c2N2CCC(N3CCC(O)(c4ccccc4)CC3)CC2)cc1 [Compound 262] | – | – | 0 | 20 | –
8 | CCCCCCCOc1ccc(S(=O)(=O)c2cnc3ccc([S+](C)[O-])cc3c2N2CCC(N3CCC(O)(c4ccccc4)CC3)CC2)cc1 (stereo not shown) [Compound 263] | – | – | **** (100% of endothelial cells vesicularize in cell shape and look flattened in morphology (indicating disintegration of the cell body)) | – | –
9 | CCCCCCCCCCOc1ccc(S(=O)(=O)c2cnc3ccc([S+](C)[O-])cc3c2N2CCC(N3CCN(C)CC3)CC2)cc1 (stereo not shown) [Compound 264] | – | – | * (50% or less of cells vesicularize in cell shape) | 20 | –
10 | CCCCCCCCCCOc1ccc(S(=O)(=O)c2cnc3ccc([S+](C)[O-])cc3c2N2CCC(N3CCCC(O)C3)CC2)cc1 (stereo not shown) [Compound 265] | – | – | * (50% or less of cells vesicularize in cell shape) | 20 | –
11 | CCCCCCCCCCOc1ccc(S(=O)(=O)c2cnc3ccc([S+](C)[O-])cc3c2N2CCCN(CCN3CCCCC3)CC2)cc1 (stereo not shown) [Compound 266] | – | – | 0 | 5 | –
12 | CCCCCCCCCCOc1ccc(S(=O)(=O)c2cnc3ccc([S+](C)[O-])cc3c2N2CCC(N3CCCN(C)CC3)CC2)cc1 (stereo not shown) [Compound 267] | – | – | 0 | 5 | –
13 | CCCCCCCCCCOc1ccc(S(=O)(=O)c2cnc3ccc([S+](C)[O-])cc3c2N2CCC(N3CCN(CCO)CC3)CC2)cc1 (stereo not shown) [Compound 268] | *** (more than 50% but less than 100% of endothelial cells vesicularize in cell shape) | 50 | – | – | –
14 | CCCCCCCCCCOc1ccc(S(=O)(=O)c2cnc3ccc([S+](C)[O-])cc3c2N2CCC(N3CCC(N4CCCCC4)CC3)CC2)cc1 (stereo not shown) [Compound 269] | **** (100% of endothelial cells vesicularize in cell shape and look flattened in morphology (indicating disintegration of the cell body)) | 100 | – | – | –
15 | CCCCCCCCCCOc1ccc(S(=O)(=O)c2cnc3ccc([S+](C)[O-])cc3c2N2CCC(N3CCC(O)(c4ccccc4)CC3)CC2)cc1 (stereo not shown) [Compound 270] | * (50% or less of cells vesicularize in cell shape) | – | – | – | –
16 | CCCCCCCOc1ccc(S(=O)(=O)c2cnc3ccc(SC)cc3c2N2CCN(CCN3CCCC3)CC2)cc1 [Compound 272] | * (50% or less of cells vesicularize in cell shape) | 20 | – | – | –

Row | Compound | 48 hrs (morphology observations) (20 μm) | Cell death (20 μm) [%] | 48 hrs (morphology observations) (10 μm) | Cell death (10 μm) [%] | other results
17 | CCCCCCCOc1ccc(S(=O)(=O)c2cnc3ccc(SC)cc3c2N2CCN(C3CCN(C)CC3)CC2)cc1 [Compound 273] | *** (more than 50% but less than 100% of endothelial cells vesicularize in cell shape) | – | – | – | cytotoxicity at 20 µM [1]: 60%
18 | CCCCCCCOc1ccc(S(=O)(=O)c2cnc3ccc(SC)cc3c2N2CCN(C3CCN(Cc4ccccc4)C3)CC2)cc1 (stereo not shown) [Compound 274] | 0 | 10 | – | – | –
19 | CCCCCCCOc1ccc(S(=O)(=O)c2cnc3ccc(SC)cc3c2N2CCN(CC3CCN(Cc4ccccc4)CC3)CC2)cc1 [Compound 275] | 0 | 5 | – | – | –
20 | CCCCCCCOc1ccc(S(=O)(=O)c2cnc3ccc([S+](C)[O-])cc3c2N2CCN(CCN3CCCC3)CC2)cc1 (stereo not shown) [Compound 276] | *** (more than 50% but less than 100% of endothelial cells vesicularize in cell shape) | 100 | – | – | –
21 | CCCCCCCOc1ccc(S(=O)(=O)c2cnc3ccc([S+](C)[O-])cc3c2N2CCN(C3CCN(CC)CC3)CC2)cc1 (stereo not shown) [Compound 277] | – | – | – | – | cytotoxicity at 10 µM [1]: 60%
22 | CCCCCCCOc1ccc(S(=O)(=O)c2cnc3ccc([S+](C)[O-])cc3c2N2CCN(C3CCN(Cc4ccccc4)C3)CC2)cc1 (stereo not shown) [Compound 278] | – | – | * (50% or less of cells vesicularize in cell shape) | 50 | –
23 | CCCCCCCOc1ccc(S(=O)(=O)c2cnc3ccc([S+](C)[O-])cc3c2N2CCN(CC3CCN(Cc4ccccc4)CC3)CC2)cc1 (stereo not shown) [Compound 279] | **** (100% of endothelial cells vesicularize in cell shape and look flattened in morphology (indicating disintegration of the cell body)) | 100 | – | – | –
24 | CCCCCCCOc1ccc(S(=O)(=O)c2cnc3ccc(SC)cc3c2N2CCN(CCN3CCCCC3)CC2)cc1 [Compound 281] | – | 50 | – | – | –
25 | CCCCCCCOc1ccc(S(=O)(=O)c2cnc3ccc([S+](C)[O-])cc3c2N2CCN(CCN3CCCCC3)CC2)cc1 (stereo not shown) [Compound 282] | – | – | 0 | 10 | –
26 | CCCCCCCCCCOc1ccc(S(=O)(=O)c2cnc3ccc([S+](C)[O-])cc3c2N2CCN(C3CCN(CC)CC3)CC2)cc1 (stereo not shown) [Compound 283] | – | – | 0 | – | cytotoxicity at 10 µM [1]: 5%
27 | CC(C)CCCC(C)CCOc1ccc(S(=O)(=O)c2cnc3ccc([S+](C)[O-])cc3c2N2CCC(N3CCN(CCO)CC3)CC2)cc1 (stereo not shown) [Compound 284] | – | – | 0 | 10 | –
28 | CCCCCCCCCCOc1ccc(S(=O)(=O)c2cnc3ccc([S+](C)[O-])cc3c2N2CCC(N3CCC(N4CCN(C)CC4)CC3)CC2)cc1 (stereo not shown) [Compound 285] | – | – | *** (more than 50% but less than 100% of endothelial cells vesicularize in cell shape) | 60 | –
29 | CCCCCCCCCCOc1ccc(S(=O)(=O)c2cnc3ccc([S+](C)[O-])cc3c2N2CCC(N3CCC(N4CCOCC4)CC3)CC2)cc1 (stereo not shown) [Compound 286] | – | – | – | – | Cell death, read at 24 hrs (20 μm): 0%; Endothelial cell morphology score at 24 hrs (20 μm): 0
30 | CCCCCCCCCCOc1ccc(S(=O)(=O)c2cnc3ccc([S+](C)[O-])cc3c2N2CCC(N3CCC(N4CCCN(C)CC4)CC3)CC2)cc1 (stereo not shown) [Compound 287] | – | – | – | – | Cell death, read at 24 hrs (20 μm): 40%; Endothelial cell morphology score at 24 hrs (20 μm): * (50% or less of cells vesicularize in cell shape)
31 | CCCCCCCCCCOc1ccc(S(=O)(=O)c2cnc3ccc([S+](C)[O-])cc3c2N2CCC(N3CCC(N4CCCC(O)C4)CC3)CC2)cc1 (stereo not shown) [Compound 288] | – | – | *** (more than 50% but less than 100% of endothelial cells vesicularize in cell shape) | 50 | –
